Where “and” joins values, the source holds several entries; their conditions need not be identical. Identical values can stand only once.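 48-hour exposure; five concentrations; linearly interpolated endpoints. At the GI50, growth is halved. TGI marks complete inhibition of growth.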
Key:
Assay in all cases: NCI anticancer screen, dose series, 48 h
SN12C renal = tested on: SN12C renal
M14 melanoma = tested on: M14 melanoma
SK-MEL-5 melanoma = tested on: SK-MEL-5 melanoma
KM12 colon = tested on: KM12 colon
CCRF-CEM leukemia = tested on: CCRF-CEM leukemia
SF-268 CNS = tested on: SF-268 CNS
COLO 205 colon = tested on: COLO 205 colon
SW-620 colon = tested on: SW-620 colon
UACC-62 melanoma = tested on: UACC-62 melanoma
UACC-257 melanoma = tested on: UACC-257 melanoma

Compound	TGI (SN12C renal)	TGI (M14 melanoma)	TGI (SK-MEL-5 melanoma)	TGI (KM12 colon)	TGI (CCRF-CEM leukemia)	TGI (SF-268 CNS)	TGI (COLO 205 colon)	TGI (SW-620 colon)	TGI (UACC-62 melanoma) [µM]	TGI (UACC-257 melanoma)	GI50 (SN12C renal)	GI50 (M14 melanoma)	GI50 (SK-MEL-5 melanoma)	GI50 (KM12 colon)	GI50 (CCRF-CEM leukemia)	GI50 (SF-268 CNS)	GI50 (COLO 205 colon)	GI50 (SW-620 colon)	GI50 (UACC-62 melanoma) [µM]	GI50 (UACC-257 melanoma)
C=C1CC(CC)(CCN2C(=O)c3ccccc3C2=O)OC1=O (centres undefined)	45.5 µM	22.8 µM	26.1 µM	45.1 µM	> 100 µM	21.4 µM	30.3 µM	22.9 µM	26.3	27 µM										
COc1ccc2c(c1)/C(=C\c1ccncc1)C(=O)N2	23.7 µM	26 µM	27.6 µM	24 µM	> 100 µM	37.3 µM	44.7 µM	43.8 µM	17.2	18.3 µM	10.3 µM	8.33 µM	13.1 µM	4.83 µM	3.06 µM	5.07 µM	11.9 µM	10.4 µM	4.46	4.62 µM
COc1ccc([C@H](CC(=O)O)N2CCN(CCCc3ccc4c(n3)NCCC4)C2=O)cn1		> 100 µM	0.173 µM	> 100 µM	> 100 µM	> 100 µM	> 100 µM	> 100 µM	> 100	> 100 µM	0.515 µM	> 100 µM	0.0501 µM	> 100 µM	> 100 µM	0.754 µM	> 100 µM		> 100	
CC1=CC2C(C(O)CC3(C)C2CC(C)C32OCOC23COCO3)C2(C)C/C(=C/O)C(=O)C=C12 (centres undefined)	6.39 µM	3.51 µM	3.16 µM	4.77 µM	3.61 µM	3.84 µM	3.47 µM	3.32 µM	3.83	3.86 µM	2.5 µM	1.66 µM	1.74 µM	2.39 µM	1.05 µM	2.03 µM	1.97 µM	1.65 µM	1.76	1.82 µM
COC(=O)c1cc(-c2ccccc2)[nH]c1N/N=C/c1c(Cl)cccc1Cl	> 36.6 µM	1.37 µM	1.89 µM	1.57 µM	93 µM	8.25 µM	> 40.1 µM	> 38.8 µM	9	41.3 µM	0.518 µM	0.24 µM	0.335 µM	0.274 µM	0.348 µM	0.436 µM	0.301 µM	0.279 µM	0.278	3.58 µM
Cc1cc2c(c(C(N)=O)c1C)-c1cccc(F)c1C2=O	> 100 µM	> 100 µM	> 100 µM	> 100 µM	> 100 µM	> 100 µM	> 100 µM	> 100 µM	> 100	> 100 µM										
COc1ccc(/C=C(/c2ccccc2)[N+](=O)[O-])c(OC)c1	3 µM	3.51 µM	3.26 µM	3.31 µM	4.76 µM	3.14 µM	4.28 µM	4.08 µM	2.7	3.38 µM	1.47 µM	1.48 µM	1.79 µM	1.72 µM	0.46 µM	1.65 µM	2.04 µM	1.73 µM	1.22	1.55 µM
CCOc1ccc2c(-c3ccnc(Nc4cc(OC)cc(C(F)(F)F)c4)n3)cnn2n1	> 25 µM	> 25 µM	> 25 µM	> 25 µM	> 25 µM	> 25 µM	> 25 µM	> 25 µM	> 25	> 25 µM	> 25 µM	> 25 µM	> 14.8 µM	3.58 µM	> 25 µM	> 18.9 µM	> 25 µM	13 µM	> 10.9	> 25 µM
CO/N=C(\COc1ccc2c(=O)c3ccccc3oc2c1)c1ccccc1	> 100 µM	> 100 µM	> 100 µM	> 100 µM	> 100 µM	> 100 µM	> 100 µM	> 100 µM	49.9	> 100 µM	35.1 µM	73.5 µM	38.1 µM	41.4 µM	> 100 µM	33.2 µM	> 100 µM	55.9 µM	21.6	39.1 µM
COc1ccc(C(=O)Cn2c(C(=O)c3ccccc3)nc3ccccc32)cc1	> 100 µM	> 100 µM	6.06 µM	> 100 µM	> 58.1 µM	> 100 µM	> 100 µM	> 100 µM	> 100	> 100 µM	> 27.7 µM	2.93 µM	2.06 µM	1.64 µM	2.87 µM	4.18 µM	5.12 µM	1.15 µM		> 100 µM
O=C1NC(N/N=C\C(O)C(O)C(O)C(O)CO)=N/C1=C/c1ccccc1 (centres undefined)	> 100 µM and 36.3 µM	> 100 µM and 31.6 µM	> 100 µM and 29.2 µM	> 100 µM and 36.7 µM	> 100 µM and 97.7 µM and > 57.7 µM	> 100 µM and 42.7 µM	> 100 µM and 41.6 µM	> 100 µM and 83.4 µM	> 100	> 100 µM and 45 µM	75.4 µM and 15.5 µM and > 100 µM	52.6 µM and 15.4 µM and > 100 µM	44.5 µM and 14.8 µM and > 100 µM	41.6 µM and 16.2 µM and > 100 µM	37.1 µM and 10.2 µM and 37.7 µM	> 100 µM and 15.2 µM	> 100 µM and 19.3 µM	54.2 µM and 23 µM and > 100 µM		> 100 µM and 19.9 µM
O=C(CCN1CCCC1)Nc1ccc2c(NCc3ccccc3)c3ccccc3nc2c1	1.52 µM	2.03 µM	2.61 µM	1.85 µM		1.85 µM	1.36 µM	1.44 µM	1.67	3.3 µM	0.332 µM	0.657 µM	1.31 µM	0.439 µM	0.493 µM	0.457 µM	0.319 µM	0.316 µM	0.454	1.45 µM
C[N+]1=c2c3cccc4cccc(c(=O)n2CC1)c43	68.8 µM	28.7 µM	32.8 µM	42.3 µM	42.3 µM	35.1 µM	24.6 µM	> 100 µM	31.5	30 µM										
COc1ccc(-c2c(C)c(C(=O)O)nc(-c3ccc4c(O)c(OC)c5c(c4n3)=NC(C)(C)N=5)c2N)c(O)c1OC	41.7 µM	74.6 µM	25.4 µM	33.1 µM	24.4 µM	21.6 µM	77.1 µM	35.4 µM	62.2	98.4 µM										

Source: PubChem BioAssay (NCI)
